Results: ChEMBL document CHEMBL4417621, “Methods to identify tas2r modulators” (2013)
The source made the active and inactive calls. No cut-off for these calls is given here.

Key:
[1] = target: T1, Taste receptor type 2 member 31 (Homo sapiens, UniProt P59538); assay: Agonist activity at full-length human TAS2R44 expressed in HEK293T/Galpha16-gustducin 44 cells assessed as effect on calcium flux by measuring deltaF/F0 ratio by Fluo-4 dye based FLIPR assay; assay type: functional, cell-based
T1 sequence (P59538 whole entry): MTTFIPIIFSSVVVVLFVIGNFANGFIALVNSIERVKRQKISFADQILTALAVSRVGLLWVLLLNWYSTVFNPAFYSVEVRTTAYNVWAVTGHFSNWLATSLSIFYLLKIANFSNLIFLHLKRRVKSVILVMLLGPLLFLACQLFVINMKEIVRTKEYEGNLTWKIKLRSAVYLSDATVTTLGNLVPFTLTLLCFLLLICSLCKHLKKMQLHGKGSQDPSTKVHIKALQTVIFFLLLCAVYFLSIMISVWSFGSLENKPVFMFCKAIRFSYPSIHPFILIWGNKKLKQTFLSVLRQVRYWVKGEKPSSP

[2] = target: T2, Taste receptor type 2 member 31 (Homo sapiens) (UniProt P59538); assay: Activation of full-length human TAS2R44 expressed in HEK293T/Galpha16-gustducin 44 cells assessed as effect on calcium flux by measuring deltaF/F0 ratio at 100 mM by Fluo-4 dye based FLIPR assay (reference value: 0.021 +/ - 0.012); assay type: functional, cell-based
T2 sequence (whole entry): T1 sequence (P59538 whole entry)

[3] = target: T2, Taste receptor type 2 member 31 (Homo sapiens); assay: Activation of full-length human TAS2R44 expressed in HEK293T/Galpha16-gustducin 44 cells assessed as effect on calcium flux by measuring deltaF/F0 ratio at 25 mM by Fluo-4 dye based FLIPR assay (reference value: […] +/ - 0.017); assay type: functional, cell-based
[4] = target: T2, Taste receptor type 2 member 31 (Homo sapiens); assay: Activation of full-length human TAS2R44 expressed in HEK293T/Galpha16-gustducin 44 cells assessed as effect on calcium flux by measuring deltaF/F0 ratio at 0.7813 mM by Fluo-4 dye based FLIPR assay (reference value: […] +/ - 0.002); assay type: functional, cell-based
[5] = target: T2, Taste receptor type 2 member 31 (Homo sapiens); assay: Activation of full-length human TAS2R44 expressed in HEK293T/Galpha16-gustducin 44 cells assessed as effect on calcium flux by measuring deltaF/F0 ratio at 0.3906 mM by Fluo-4 dye based FLIPR assay (reference value: […] +/ - 0.002); assay type: functional, cell-based
[6] = target: T3, Taste receptor type 2 member 1 (Homo sapiens) (UniProt Q9NYW7); assay: Activation of full-length human TAS2R1 expressed in HEK293T/Galpha16-gustducin 44 cells assessed as effect on calcium flux by measuring deltaF/F0 ratio at 50 mM by Fluo-4 dye based FLIPR assay; assay type: functional, cell-based
T3 sequence (whole entry): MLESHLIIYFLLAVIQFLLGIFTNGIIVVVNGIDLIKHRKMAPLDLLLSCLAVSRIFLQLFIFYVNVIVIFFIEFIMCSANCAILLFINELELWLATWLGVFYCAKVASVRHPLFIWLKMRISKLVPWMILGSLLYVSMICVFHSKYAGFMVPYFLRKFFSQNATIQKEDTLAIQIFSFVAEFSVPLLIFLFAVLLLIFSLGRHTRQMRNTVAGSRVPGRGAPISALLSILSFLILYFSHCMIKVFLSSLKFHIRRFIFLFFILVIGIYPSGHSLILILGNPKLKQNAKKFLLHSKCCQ

[7] = target: T3, Taste receptor type 2 member 1 (Homo sapiens); assay: Activation of full-length human TAS2R1 expressed in HEK293T/Galpha16-gustducin 44 cells assessed as effect on calcium flux by measuring deltaF/F0 ratio at 6.25 mM by Fluo-4 dye based FLIPR assay; assay type: functional, cell-based
[8] = target: T3, Taste receptor type 2 member 1 (Homo sapiens); assay: Activation of full-length human TAS2R1 expressed in HEK293T/Galpha16-gustducin 44 cells assessed as effect on calcium flux by measuring deltaF/F0 ratio at 0.7813 mM by Fluo-4 dye based FLIPR assay; assay type: functional, cell-based
[9] = target: T4, Taste receptor type 2 member 10 (Homo sapiens) (UniProt Q9NYW0); assay: Activation of full-length human TAS2R10 expressed in HEK293T/Galpha16-gustducin 44 cells assessed as effect on calcium flux by measuring deltaF/F0 ratio at 25 mM by Fluo-4 dye based FLIPR assay; assay type: functional, cell-based
T4 sequence (whole entry): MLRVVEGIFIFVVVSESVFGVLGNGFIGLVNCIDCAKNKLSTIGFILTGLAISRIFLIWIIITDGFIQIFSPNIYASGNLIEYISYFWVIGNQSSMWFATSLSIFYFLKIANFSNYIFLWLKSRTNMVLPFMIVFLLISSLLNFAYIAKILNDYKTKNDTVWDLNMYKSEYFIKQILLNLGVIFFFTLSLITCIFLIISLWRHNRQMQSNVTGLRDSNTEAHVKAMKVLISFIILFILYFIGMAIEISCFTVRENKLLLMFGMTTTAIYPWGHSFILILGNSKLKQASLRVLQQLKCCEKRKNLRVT

[10] = target: T4, Taste receptor type 2 member 10 (Homo sapiens); assay: Activation of full-length human TAS2R10 expressed in HEK293T/Galpha16-gustducin 44 cells assessed as effect on calcium flux by measuring deltaF/F0 ratio at 0.3906 mM by Fluo-4 dye based FLIPR assay; assay type: functional, cell-based
[11] = target: T5, Taste receptor type 2 member 46 (Homo sapiens) (UniProt P59540); assay: Activation of full-length human TAS2R46 expressed in HEK293T/Galpha16-gustducin 44 cells assessed as effect on calcium flux by measuring deltaF/F0 ratio at 25 mM by Fluo-4 dye based FLIPR assay; assay type: functional, cell-based
T5 sequence (whole entry): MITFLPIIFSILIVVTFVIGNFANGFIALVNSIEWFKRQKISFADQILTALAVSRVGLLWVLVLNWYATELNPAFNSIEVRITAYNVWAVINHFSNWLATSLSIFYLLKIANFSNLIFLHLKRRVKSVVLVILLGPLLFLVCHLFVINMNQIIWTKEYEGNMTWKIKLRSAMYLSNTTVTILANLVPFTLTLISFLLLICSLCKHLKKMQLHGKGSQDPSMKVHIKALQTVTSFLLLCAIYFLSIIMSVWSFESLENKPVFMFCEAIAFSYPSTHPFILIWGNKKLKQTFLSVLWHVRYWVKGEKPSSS

[12] = target: T5, Taste receptor type 2 member 46 (Homo sapiens); assay: Activation of full-length human TAS2R46 expressed in HEK293T/Galpha16-gustducin 44 cells assessed as effect on calcium flux by measuring deltaF/F0 ratio at 6.25 mM by Fluo-4 dye based FLIPR assay; assay type: functional, cell-based
[13] = target: T5, Taste receptor type 2 member 46 (Homo sapiens); assay: Activation of full-length human TAS2R46 expressed in HEK293T/Galpha16-gustducin 44 cells assessed as effect on calcium flux by measuring deltaF/F0 ratio at 0.7813 mM by Fluo-4 dye based FLIPR assay; assay type: functional, cell-based
[14] = target: T5, Taste receptor type 2 member 46 (Homo sapiens); assay: Activation of full-length human TAS2R46 expressed in HEK293T/Galpha16-gustducin 44 cells assessed as effect on calcium flux by measuring deltaF/F0 ratio at 0.3906 mM by Fluo-4 dye based FLIPR assay; assay type: functional, cell-based
[15] = target: T5, Taste receptor type 2 member 46 (Homo sapiens); assay: Activation of full-length human TAS2R46 expressed in HEK293T/Galpha16-gustducin 44 cells assessed as effect on calcium flux by measuring deltaF/F0 ratio by Fluo-4 dye based FLIPR assay; assay type: functional, cell-based
Homo sapiens = species on record: Homo sapiens; assay: Induction of bitter sensitivity in bitter sensitive human panelists tasting solution containing 3 mM compound in absence of 13 ppm (E)-4-(2,2,3-trimethylcyclopent-3-enyl)but-2-enoic acid; assay type: functional, organism-based

EC50 [1]: 16.7 mM
Ratio [2]: 0.26
Ratio [3]: 0.197
Ratio [4]: 0.025
Ratio [5]: 0.023
Ratio [6]: 0.197
Ratio [7]: 0.061
Ratio [8]: 0.05
Ratio [9]: 0.087
Ratio [10]: 0.05
Ratio [11]: 0.106
Ratio [12]: 0.057
Ratio [13]: 0.038
Ratio [14]: 0.041
Activity [15]: Dose-dependent effect
Structure (SMILES): OC[C@H]1O[C@H](O[C@]2(CCl)O[C@H](CCl)[C@@H](O)[C@@H]2O)[C@H](O)[C@@H](O)[C@H]1Cl [SUCRALOSE]
Activity (Homo sapiens): Active
